Laboratory results: patent US20250228239A1, “MOLECULES HAVING PESTICIDAL UTILITY, AND INTERMEDIATES, COMPOSITIONS, AND PROCESSES, RELATED THERETO” (priority 2024, published 2025)
Like-named read-outs stand apart in the source and are kept apart here.

Columns and labels:
Type in all cases: in vivo
[1] = test system: Yellow Fever Mosquito (Aedes aegypti, AEDSAE); conditions: for YFM rating: Table ABC / ABC-DP rating
Summary of the method: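 Rating-scale grades reflect larval mortality scored per well after 3 days at room temperature under non-evaporative lids. Larvae (~1 day old, hatched overnight in liver-powder water) were added to six daughter plates per compound, prepared from a 4000 ppm DMSO stock diluted in 90:10 water/acetone.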

[2] = test system: Cabbage Looper (Trichoplusia ni, TRIPNI); experiment: Bioassays on Cabbage Looper (CL), 128-well diet tray assay; conditions: Trichoplusia ni
Summary of the method: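 Diet tray, 2nd instar, 1–5 larvae/well; 50 μg/cm^2 compound surface-applied (acetone:water 90:10), dried; 8 wells/treatment; 25° C, 14:10 L:D, 5–7 d; % mortality, mean of 8 wells.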

[3] = test system: Beet Armyworm (Spodoptera exigua, LAPHEG); experiment: Bioassays on Beet Armyworm (BAW), 128-well diet tray assay; conditions: Spodoptera exigua
Summary of the method: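 Diet-overlay assay: 50 μg/cm^2 compound applied in 90:10 acetone-water to artificial diet, allowed to dry, then infested with 1–5 L2 larvae/well; 8 wells/compound; covered, vented; 25° C., 14:10 L:D, 5–7 d; % mortality per well, averaged.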

[4] = Cabbage Looper, Table ABC / ABC-DP rating, read-out: CL rating
[5] = Beet Armyworm, Table ABC / ABC-DP rating, read-out: BAW rating
[6] = Yellow Fever Mosquito, rating class
[7] = Cabbage Looper, rating class, read-out: CL
[8] = Beet Armyworm, rating class, read-out: BAW
[9] = Table ABC: Biological Results, species YFM
[10] = Table ABC: Biological Results, species CL, read-out: CL
[11] = Table ABC: Biological Results, species BAW, read-out: BAW

## COc1ccc(NNC(=O)c2cc(NC(=O)[C@H]3[C@H](c4cc(Cl)cc(Cl)c4)C3(Cl)Cl)ccc2Cl)cc1 (relative stereo) [F2563, trans-2,2-Dichloro-N-(4-chloro-3-(2-(4-methoxyphenyl)hydrazine-1-carbonyl)phenyl)-3-(3,5-dichlorophenyl)cyclopropane-1-carboxamide]
[1]; Yellow Fever Mosquito
  YFM rating: B (More than 0 – Less than 80)
[1]; about 1 day-old larvae, 4000 ppm master solution diluted with 90:10 water/acetone, 15 μL per well plus 220 μL larval mixture, 3 days, mortality
  YFM % Control (or Mortality) rating: B (More than 0 – Less than 80)
[2]; 168 h, second instar larvae, 50 μg/cm^2 of test molecule on artificial diet, 25° C., five to seven days, average of eight wells, read-out: CL % Control (or Mortality) rating
  mortality at 50 µg/cm2: 50 to 100%
[2]; [4]
  pest or weed control at 50 µg/cm2: 50 to 100%
[3]; 168 h, second instar larvae, 50 μg/cm^2 of test molecule on artificial diet, 25° C., five to seven days, average of eight wells, read-out: BAW % Control (or Mortality) rating
  mortality at 50 µg/cm2: 50 to 100%
[3]; [5]
  pest or weed control at 50 µg/cm2: 50 to 100%

## O=C(NNc1ccc(Cl)nn1)c1cc(NC(=O)[C@H]2[C@H](c3cc(Cl)cc(Cl)c3)C2(Cl)Cl)ccc1Cl (relative stereo) [F2506, trans-2,2-Dichloro-N-(4-chloro-3-(2-(6-chloropyridazin-3-yl)hydrazine-1-carbonyl)phenyl)-3-(3,5-dichlorophenyl)cyclopropane-1-carboxamide]
[1]; Yellow Fever Mosquito
  YFM rating: A (80–100)
[2]; [4]
  pest or weed control at 50 µg/cm2: 50 to 100%
[3]; [5]
  pest or weed control at 50 µg/cm2: 50 to 100%

## O=C(Nc1cc(NC(=O)C(F)(F)F)c(F)cc1F)c1cc(NC(=O)[C@H]2[C@H](c3ccc(F)c(C(F)(F)F)c3)C2(Cl)Cl)ccc1F [F1557, 5-((1R,3R)-2,2-Dichloro-3-(4-fluoro-3-(trifluoromethyl)phenyl)cyclopropane-1-carboxamido)-N-(2,4-difluoro-5-(2,2,2-trifluoroacetamido)phenyl)-2-fluorobenzamide]
[1]; [6]
  YFM: A (80–100)
[2]; [7]
  pest or weed control at 50 µg/cm2: 50 to 100%
[3]; [8]
  pest or weed control at 50 µg/cm2: 50 to 100%

## O=C(NCCCNC(=O)C(F)(F)C(F)(F)F)c1cc(NC(=O)[C@H]2[C@H](c3cc(Cl)cc(Cl)c3)C2(Cl)Cl)ccc1Cl (relative stereo) [F2097, trans-2-Chloro-5-(2,2-dichloro-3-(3,5-dichlorophenyl)cyclopropane-1-carboxamido)-N-(3-(2,2,3,3,3-pentafluoropropanamido)propyl)benzamide]
[1]; Yellow Fever Mosquito
  YFM rating: A (80–100)
[2]; [4]
  pest or weed control at 50 µg/cm2: 50 to 100%
[3]; [5]
  pest or weed control at 50 µg/cm2: 50 to 100%

## CC(C)(Br)C(=O)Nc1c(F)ccc(NC(=O)c2cc(NC(=O)[C@H]3[C@H](c4ccc(F)c(C(F)(F)F)c4)C3(Cl)Cl)ccc2Cl)c1F [F1354, N-(3-(2-Bromo-2-methylpropanamido)-2,4-difluorophenyl)-2-chloro-5-((1R,3R)-2,2-dichloro-3-(4-fluoro-3-(trifluoromethyl)phenyl)cyclopropane-1-carboxamido)benzamide]
[1]; [9]
  YFM: A (80–100)
[2]; [10]
  pest or weed control at 50 µg/cm2: 50 to 100%
[3]; [11]
  pest or weed control at 50 µg/cm2: 50 to 100%

## O=C(Nc1ccc(F)cc1)c1cc(NC(=O)[C@H]2[C@H](c3ccc(F)c(Cl)c3)C2(Cl)Cl)cc(F)c1Cl (relative stereo) [F1152, trans-2-Chloro-5-(2,2-dichloro-3-(3-chloro-4-fluorophenyl)cyclopropane-1-carboxamido)-3-fluoro-N-(4-fluorophenyl)benzamide]
[1]; [9]
  YFM: A (80–100)
[2]; [10]
  pest or weed control at 50 µg/cm2: 50 to 100%
[3]; [11]
  pest or weed control at 50 µg/cm2: 50 to 100%

## COc1c(F)cc(NC(=O)[C@H]2[C@H](c3ccc(F)c(Cl)c3)C2(Cl)Cl)cc1C(=O)NCCC(F)(F)F (relative stereo) [F2059, trans-5-(2,2-Dichloro-3-(3-chloro-4-fluorophenyl)cyclopropane-1-carboxamido)-3-fluoro-2-methoxy-N-(3,3,3-trifluoropropyl)benzamide]
[1]; Yellow Fever Mosquito
  YFM rating: A (80–100)
[2]; [4]
  pest or weed control at 50 µg/cm2: 50 to 100%
[3]; [5]
  pest or weed control at 50 µg/cm2: 50 to 100%

## CCOCCC(=O)Nc1c(F)ccc(NC(=O)c2cc(NC(=O)[C@H]3[C@H](c4ccc(Cl)c(Cl)c4)C3(Cl)Cl)ccc2Cl)c1F [F1419, 2-Chloro-5-((1R,3R)-2,2-dichloro-3-(3,4-dichlorophenyl)cyclopropane-1-carboxamido)-N-(3-(3-ethoxypropanamido)-2,4-difluorophenyl)benzamide]
[1]; [6]
  YFM: A (80–100)
[2]; [7]
  pest or weed control at 50 µg/cm2: 50 to 100%
[3]; [8]
  pest or weed control at 50 µg/cm2: 50 to 100%

## O=C(Nc1c(F)ccc(NC(=O)C(F)(F)F)c1F)c1cc(NC(=O)[C@H]2[C@H](c3cc(Cl)c(Cl)c(Cl)c3)C2(Cl)Cl)ccc1F [F1554, 5-((1R,3R)-2,2-Dichloro-3-(3,4,5-trichlorophenyl)cyclopropane-1-carboxamido)-N-(2,6-difluoro-3-(2,2,2-trifluoroacetamido)phenyl)-2-fluorobenzamide]
[1]; [6]
  YFM: A (80–100)
[2]; [7]
  pest or weed control at 50 µg/cm2: 50 to 100%
[3]; [8]
  pest or weed control at 50 µg/cm2: 50 to 100%

## CNNC(=O)c1cc(NC(=O)[C@H]2[C@H](c3cc(Cl)cc(Cl)c3)C2(Cl)Cl)ccc1Cl.Cl (relative stereo) [F2521, trans-2,2-Dichloro-N-(4-chloro-3-(2-methylhydrazine-1-carbonyl)phenyl)-3-(3,5-dichlorophenyl)cyclopropane-1-carboxamide hydrochloride]
[1]; Yellow Fever Mosquito
  YFM rating: A (80–100)
[2]; [4]
  pest or weed control at 50 µg/cm2: 50 to 100%
[3]; [5]
  pest or weed control at 50 µg/cm2: 50 to 100%

## N#CCC(=O)Nc1c(Cl)ccc(NC(=O)c2cc(NC(=O)[C@H]3[C@H](c4ccc(Cl)c(Cl)c4)C3(Cl)Cl)ccc2Cl)c1Cl [F1415, 2-Chloro-N-(2,4-dichloro-3-(2-cyanoacetamido)phenyl)-5-((1R,3R)-2,2-dichloro-3-(3,4-dichlorophenyl)cyclopropane-1-carboxamido)benzamide]
[1]; [6]
  YFM: A (80–100)
[2]; [7]
  pest or weed control at 50 µg/cm2: 50 to 100%
[3]; [8]
  pest or weed control at 50 µg/cm2: 50 to 100%

## O=C(Nc1ccc(F)cc1F)c1cc(NC(=O)[C@H]2[C@H](c3cc(F)c(Cl)c(C(F)(F)F)c3)C2(Cl)Cl)ccc1Cl (relative stereo) [F1163, trans-2-Chloro-5-(2,2-dichloro-3-(4-chloro-3-fluoro-5-(trifluoromethyl)phenyl)cyclopropane-1-carboxamido)-N-(2,4-difluorophenyl)benzamide]
[1]; [9]
  YFM: A (80–100)
[2]; [10]
  pest or weed control at 50 µg/cm2: 50 to 100%
[3]; [11]
  pest or weed control at 50 µg/cm2: 50 to 100%

## O=C(Nc1c(F)ccc(NC(=O)c2cc(NC(=O)[C@H]3[C@H](c4ccc(F)c(C(F)(F)F)c4)C3(Cl)Cl)ccc2Cl)c1F)c1ccn(CC(F)(F)F)n1 [F1819, N-(3-(2-Chloro-5-((1R,3R)-2,2-dichloro-3-(4-fluoro-3-(trifluoromethyl)phenyl)cyclopropane-1-carboxamido)benzamido)-2,6-difluorophenyl)-1-(2,2,2-trifluoroethyl)-1H-pyrazole-3-carboxamide]
[1]; Yellow Fever Mosquito
  YFM rating: A (80–100)
[2]; [4]
  pest or weed control at 50 µg/cm2: 50 to 100%
[3]; [5]
  pest or weed control at 50 µg/cm2: 50 to 100%

## O=C(NCCCCl)c1cc(NC(=O)[C@H]2[C@H](c3ccc(F)c(Cl)c3)C2(Cl)Cl)cc(F)c1Cl (relative stereo) [F2036, trans-2-Chloro-N-(3-chloropropyl)-5-(2,2-dichloro-3-(3-chloro-4-fluorophenyl)cyclopropane-1-carboxamido)-3-fluorobenzamide]
[1]; Yellow Fever Mosquito
  YFM rating: A (80–100)
[2]; [4]
  pest or weed control at 50 µg/cm2: 50 to 100%
[3]; [5]
  pest or weed control at 50 µg/cm2: 50 to 100%

## CNC(=O)CCNC(=O)c1cc(NC(=O)[C@H]2[C@H](c3cc(Cl)cc(Cl)c3)C2(Cl)Cl)ccc1Cl (relative stereo) [F2070, trans-2-Chloro-5-(2,2-dichloro-3-(3,5-dichlorophenyl)cyclopropane-1-carboxamido)-N-(3-(methylamino)-3-oxopropyl)benzamide]
[1]; Yellow Fever Mosquito
  YFM rating: A (80–100)
[2]; [4]
  pest or weed control at 50 µg/cm2: 50 to 100%
[3]; [5]
  pest or weed control at 50 µg/cm2: 50 to 100%

## CC(=O)Nc1ccc(F)c(NC(=O)c2cc(NC(=O)[C@H]3[C@H](c4cc(Cl)c(Cl)c(Cl)c4)C3(Cl)Cl)ccc2F)c1F [F1556, N-(3-Acetamido-2,6-difluorophenyl)-5-((1R,3R)-2,2-dichloro-3-(3,4,5-trichlorophenyl)cyclopropane-1-carboxamido)-2-fluorobenzamide]
[1]; [6]
  YFM: A (80–100)
[2]; [7]
  pest or weed control at 50 µg/cm2: 50 to 100%
[3]; [8]
  pest or weed control at 50 µg/cm2: 50 to 100%

## Nc1c(F)ccc(NC(=O)c2cc(NC(=O)[C@H]3[C@H](c4cccc(S(F)(F)(F)(F)F)c4)C3(Cl)Cl)ccc2Cl)c1F (relative stereo) [F1143, trans-N-(3-Amino-2,4-difluorophenyl)-2-chloro-5-(2,2-dichloro-3-(3-(pentafluoro-λ^6-sulfanyl)phenyl)cyclopropane-1-carboxamido)benzamide]
[1]; [9]
  YFM: A (80–100)
[2]; [10]
  pest or weed control at 50 µg/cm2: 50 to 100%
[3]; [11]
  pest or weed control at 50 µg/cm2: 50 to 100%

## COc1c(F)cc(NC(=O)[C@H]2[C@H](c3ccc(F)c(Cl)c3)C2(Cl)Cl)cc1C(=O)Nc1ccc(F)cc1F (relative stereo) [F1219, trans-5-(2,2-Dichloro-3-(3-chloro-4-fluorophenyl)cyclopropane-1-carboxamido)-N-(2,4-difluorophenyl)-3-fluoro-2-methoxybenzamide]
[1]; [9]
  YFM: A (80–100)
[2]; [10]
  pest or weed control at 50 µg/cm2: 50 to 100%
[3]; [11]
  pest or weed control at 50 µg/cm2: 50 to 100%
